Tests used:
[1] = tested on: 4-week-old Hubbard x Hubbard cockerels; experiment: Example 1: effect of TRH on growth in 4-week-old male chicks (17 days); format: in vivo, chicken; details: for body weight gain as compared with control (in words): P 0.01
Protocol: Four-week-old Hubbard x Hubbard cockerels were used in this experiment, and average initial weights were 841.75 g. Synthetic TRH (Beckman Co., Calif.) was dissolved in saline and given daily by intravenous injection via the brachial vein at 0.1 μg/bird, 1.0 μg/bird, and 10.0 μg/bird. Birds were weighed and feed consumption was measured at 2 times a week for 21/2 weeks. Data were analyzed by least squares analyses of variance, using initial weight as a covariant.

[2] = tested on: 4-week-old Hubbard×Hubbard cockerels; experiment: Example 2: effect of TRH on growth in 4-week-old male chicks (25 days); format: in vivo, chicken
Protocol: Four-week-old Hubbard×Hubbard cockerels were used in this experiment, and average weight was 831.38 g. Synthetic TRH (Beckman Co., CA) was dissolved in saline and given daily by intravenous injection via the brachial vein at 0.1 μg/bird, 1.0 μg/bird, and 10 μg/ bird. Birds were weighed twice a week for 4 weeks. Data were analyzed by least squares of variance, using initial weight as a covariant.

[3] = 0.1 μg/bird daily intravenous, day 3 after start of treatment
[4] = 0.1 μg/bird daily intravenous, day 7 after start of treatment
[5] = 0.1 μg/bird daily intravenous, day 10 after start of treatment
[6] = 0.1 μg/bird daily intravenous, day 14 after start of treatment
[7] = 0.1 μg/bird daily intravenous, day 17 after start of treatment
[8] = 1.0 μg/bird daily intravenous, day 3 after start of treatment
[9] = 1.0 μg/bird daily intravenous, day 7 after start of treatment
[10] = 1.0 μg/bird daily intravenous, day 10 after start of treatment
[11] = 1.0 μg/bird daily intravenous, day 14 after start of treatment
[12] = 1.0 μg/bird daily intravenous, day 14 after start of treatment, P < 0.01
[13] = 1.0 μg/bird daily intravenous, day 17 after start of treatment, P < 0.01
[14] = 1.0 μg/bird/day, 14 and 17 days after the start of treatment
[15] = 10 μg/bird daily intravenous, day 3 after start of treatment
[16] = 10 μg/bird daily intravenous, day 7 after start of treatment
[17] = 10 μg/bird daily intravenous, day 10 after start of treatment
[18] = 10 μg/bird daily intravenous, day 14 after start of treatment
[19] = 10 μg/bird daily intravenous, day 14 after start of treatment, P < 0.01
[20] = 10 μg/bird daily intravenous, day 17 after start of treatment, P < 0.01
[21] = 10 μg/bird/day, 14 and 17 days after the start of treatment
[22] = 1.0 μg/bird/day, 22 (p 0.05) and 25 (p 0.025) days after the start of treatment
[23] = TRH (high) 10 μg/bird daily intravenous, day 4 after start of treatment
[24] = TRH (high) 10 μg/bird daily intravenous, day 8 after start of treatment

## NC(=O)[C@@H]1CCCN1C(=O)[C@H](Cc1c[nH]cn1)NC(=O)[C@@H]1CCC(=O)N1 [TRH, Glp--His--Pro--NH2]
[1]; [3]
  body weight gain: 171.7 ± 9.8 g
  body weight gain, percent increased as compared with control: +0.6%
  body weight, least squares mean ± SEM corrected by initial weight: 1009.3 ± 9.7 g
  body weight, percent increased as compared with control: +0.1%
[1]; [4]
  body weight gain: 393.1 ± 14.7 g
  body weight gain, percent increased as compared with control: +5.0%
  body weight, least squares mean ± SEM corrected by initial weight: 1230.6 ± 14.7 g
  body weight, percent increased as compared with control: +1.5%
[1]; [5]
  body weight gain: 569.4 ± 19.7 g
  body weight gain, percent increased as compared with control: +5.5%
  body weight, least squares mean ± SEM corrected by initial weight: 1406.9 ± 19.7 g
  body weight, percent increased as compared with control: +2.2%
[1]; [6]
  body weight gain: 824.3 ± 24.9 g
  body weight gain, percent increased as compared with control: +8.9%
  body weight, least squares mean ± SEM corrected by initial weight: 1662.1 ± 24.8 g
  body weight, percent increased as compared with control: +4.0%
[1]; [7]
  body weight gain: 999.5 ± 27.8 g
  body weight gain, percent increased as compared with control: +7.5%
  body weight, least squares mean ± SEM corrected by initial weight: 1837.1 ± 27.8 g
  body weight, percent increased as compared with control: +3.9%
[1]; 0.1 μg/bird/day
  body weight compared with birds receiving saline injections (in words): slight increase in the body weight
[1]; [8]
  body weight gain: 174.2 ± 9.7 g
  body weight gain, percent increased as compared with control: +2.1%
  body weight, least squares mean ± SEM corrected by initial weight: 1011.8 ± 9.7 g
  body weight, percent increased as compared with control: +0.3%
[1]; [9]
  body weight gain: 409.2 ± 14.6 g
  body weight gain, percent increased as compared with control: +9.3%
  body weight, least squares mean ± SEM corrected by initial weight: 1246.7 ± 14.6 g
  body weight, percent increased as compared with control: +2.9%
[1]; [10]
  body weight gain: 582.9 ± 19.6 g
  body weight gain, percent increased as compared with control: +8.0%
  body weight, least squares mean ± SEM corrected by initial weight: 1420.5 ± 19.6 g
  body weight, percent increased as compared with control: +3.2%
[1]; [11]
  body weight gain, percent increased as compared with control: +13.1%
  body weight, percent increased as compared with control: +6.0%
[1]; [12]
  body weight gain: 856.2 ± 24.8 g
  body weight, least squares mean ± SEM corrected by initial weight: 1693.7 ± 24.6 g
[1]; 1.0 μg/bird daily intravenous, day 17 after start of treatment
  body weight, percent increased as compared with control: +6.3%
[1]; 1.0 μg/bird daily intravenous, day 17 after start of treatment (end of experiment)
  body weight gain, percent increased as compared with control: 12.0%
[1]; [13]
  body weight gain: 1041.2 ± 27.6 g
  body weight, least squares mean ± SEM corrected by initial weight: 1878.8 ± 27.6 g
[1]; [14]
  body weight compared with birds receiving saline injections (in words): increased body weight significantly
  body weight gain as compared with control (in words): significant increase
[1]; [15]
  body weight gain: 181.6 ± 8.7 g
  body weight gain, percent increased as compared with control: +6.4%
  body weight, least squares mean ± SEM corrected by initial weight: 1019.2 ± 8.7 g
  body weight, percent increased as compared with control: +1.1%
[1]; [16]
  body weight gain: 399.3 ± 13.1 g
  body weight gain, percent increased as compared with control: +6.7%
  body weight, least squares mean ± SEM corrected by initial weight: 1236.9 ± 13.1 g
  body weight, percent increased as compared with control: +2.1%
[1]; [17]
  body weight gain: 584.0 ± 7.6 g
  body weight gain, percent increased as compared with control: +8.2%
  body weight, least squares mean ± SEM corrected by initial weight: 1421.6 ± 17.6 g
  body weight, percent increased as compared with control: +3.2%
[1]; [18]
  body weight gain, percent increased as compared with control: +12.7%
  body weight, percent increased as compared with control: +5.8%
[1]; [19]
  body weight gain: 853.3 ± 22.2 g
  body weight, least squares mean ± SEM corrected by initial weight: 1690.8 ± 22.0 g
[1]; 10 μg/bird daily intravenous, day 17 after start of treatment
  body weight, percent increased as compared with control: +6.5%
[1]; [20]
  body weight gain: 1044.9 ± 24.7 g
  body weight, least squares mean ± SEM corrected by initial weight: 1882.5 ± 24.7 g
[1]; [21]
  body weight compared with birds receiving saline injections (in words): increased body weight significantly
  body weight gain as compared with control (in words): significant increase
[2]; 0.1 μg/bird/day
  body weight compared with birds receiving saline injections (in words): slight increase in body weight
[2]; [22]
  body weight compared with birds receiving saline injections (in words): significant increase in body weight
  body weight gain as compared with control birds (in words): significant increase
[2]; 10 μg/bird/day
  body weight compared with birds receiving saline injections (in words): slight increase in body weight
[2]; 10 μg/bird/day, throughout the whole experiment
  body weight gain as compared with control birds (in words): slight increase in body weight gain
[2]; [23]
  body weight gain: 156.3 ± 8.4 g
  body weight gain, percent increase as compared with control: 4.6%
  body weight, least squares mean ± standard error of the mean corrected by initial weight: 997.7 ± 8.3 g
  body weight, percent increased as compared with control: 0.7%
[2]; [24]
  body weight gain: 377.9 ± 15.1 g
  body weight gain, percent increase as compared with control: 0%
  body weight, least squares mean ± standard error of the mean corrected by initial weight: 1219.1 ± 15.0 g

Reference: patent publication US4493828A, “Use of thyrotropin releasing hormone and related peptides as poultry growth promotants” (Merck & Co., Inc., priority 1982, dated 1985)
